{"source": "ChEMBL document CHEMBL1201862", "about": "“PubChem BioAssay data set” (2004)", "key": {"[1]": {"biological_target": "Glycogen synthase kinase-3 beta (Homo sapiens, UniProt P49841)", "type": "functional"}, "[2]": {"biological_target": "Testis-specific serine/threonine-protein kinase 1 (Homo sapiens, UniProt Q9BXA7)", "sequence (Q9BXA7 whole entry)": "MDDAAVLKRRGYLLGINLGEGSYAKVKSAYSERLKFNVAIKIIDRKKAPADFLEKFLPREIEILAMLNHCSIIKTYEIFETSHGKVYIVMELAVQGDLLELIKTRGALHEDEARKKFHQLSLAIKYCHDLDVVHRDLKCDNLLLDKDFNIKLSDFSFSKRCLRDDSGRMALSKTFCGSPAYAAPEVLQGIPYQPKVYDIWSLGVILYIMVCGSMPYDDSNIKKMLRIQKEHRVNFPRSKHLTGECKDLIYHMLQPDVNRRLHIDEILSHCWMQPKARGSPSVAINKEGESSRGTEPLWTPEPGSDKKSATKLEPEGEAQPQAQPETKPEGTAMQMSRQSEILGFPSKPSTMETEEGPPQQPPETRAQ", "type": "functional"}, "[3]": {"biological_target": "Protein kinase C zeta type (Homo sapiens, UniProt Q05513)", "sequence (Q05513 whole entry)": "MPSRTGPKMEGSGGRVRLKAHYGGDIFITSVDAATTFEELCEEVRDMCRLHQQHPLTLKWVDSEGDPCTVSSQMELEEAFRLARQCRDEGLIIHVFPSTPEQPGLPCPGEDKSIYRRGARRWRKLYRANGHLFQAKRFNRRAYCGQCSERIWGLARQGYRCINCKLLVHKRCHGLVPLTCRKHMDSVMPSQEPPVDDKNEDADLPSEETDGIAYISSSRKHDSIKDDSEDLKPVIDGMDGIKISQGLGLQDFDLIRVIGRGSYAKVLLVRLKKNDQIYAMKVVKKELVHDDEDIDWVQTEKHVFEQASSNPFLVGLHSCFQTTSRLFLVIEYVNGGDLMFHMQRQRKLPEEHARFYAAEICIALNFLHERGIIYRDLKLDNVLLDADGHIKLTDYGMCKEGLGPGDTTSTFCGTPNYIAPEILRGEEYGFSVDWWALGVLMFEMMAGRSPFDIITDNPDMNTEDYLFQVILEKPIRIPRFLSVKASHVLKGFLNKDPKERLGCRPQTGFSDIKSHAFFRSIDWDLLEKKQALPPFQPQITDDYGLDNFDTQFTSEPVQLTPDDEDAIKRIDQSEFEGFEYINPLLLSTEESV", "type": "functional"}, "[4]": {"biological_target": "Calcium/calmodulin-dependent protein kinase type II subunit alpha (Homo sapiens, UniProt Q9UQM7)", "assay": "Navigating the Kinome. Panel member name: CAMK2A", "type": "functional"}, "[5]": {"biological_target": "Tyrosine-protein kinase JAK3 (Homo sapiens, UniProt P52333)", "type": "functional"}, "[6]": {"biological_target": "Casein kinase II subunit alpha (Homo sapiens, UniProt P68400)", "sequence (P68400 whole entry)": "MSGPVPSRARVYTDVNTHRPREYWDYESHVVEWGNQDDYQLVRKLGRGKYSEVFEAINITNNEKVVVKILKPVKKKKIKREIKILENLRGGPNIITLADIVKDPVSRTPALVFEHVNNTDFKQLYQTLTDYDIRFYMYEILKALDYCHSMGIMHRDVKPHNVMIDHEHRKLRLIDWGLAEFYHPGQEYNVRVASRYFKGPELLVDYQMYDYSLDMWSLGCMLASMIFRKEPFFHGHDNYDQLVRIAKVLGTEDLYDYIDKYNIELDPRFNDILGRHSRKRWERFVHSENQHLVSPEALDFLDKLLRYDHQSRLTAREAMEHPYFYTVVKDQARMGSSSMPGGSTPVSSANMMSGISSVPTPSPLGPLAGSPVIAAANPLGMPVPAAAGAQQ", "type": "functional"}, "[7]": {"biological_target": "Dual specificity protein kinase CLK4 (Homo sapiens, UniProt Q9HAZ1)", "type": "functional"}, "[8]": {"biological_target": "Serine/threonine-protein kinase PLK3 (Homo sapiens, UniProt Q9H4B4)", "type": "functional"}, "[9]": {"biological_target": "5'-AMP-activated protein kinase catalytic subunit alpha-1 (Homo sapiens, UniProt Q13131)", "type": "functional"}, "[10]": {"biological_target": "Cyclin-dependent kinase 2 (Homo sapiens, UniProt P24941)", "type": "functional"}, "[11]": {"biological_target": "MAP kinase-interacting serine/threonine-protein kinase 2 (Homo sapiens, UniProt Q9HBH9)", "sequence (Q9HBH9 whole entry)": "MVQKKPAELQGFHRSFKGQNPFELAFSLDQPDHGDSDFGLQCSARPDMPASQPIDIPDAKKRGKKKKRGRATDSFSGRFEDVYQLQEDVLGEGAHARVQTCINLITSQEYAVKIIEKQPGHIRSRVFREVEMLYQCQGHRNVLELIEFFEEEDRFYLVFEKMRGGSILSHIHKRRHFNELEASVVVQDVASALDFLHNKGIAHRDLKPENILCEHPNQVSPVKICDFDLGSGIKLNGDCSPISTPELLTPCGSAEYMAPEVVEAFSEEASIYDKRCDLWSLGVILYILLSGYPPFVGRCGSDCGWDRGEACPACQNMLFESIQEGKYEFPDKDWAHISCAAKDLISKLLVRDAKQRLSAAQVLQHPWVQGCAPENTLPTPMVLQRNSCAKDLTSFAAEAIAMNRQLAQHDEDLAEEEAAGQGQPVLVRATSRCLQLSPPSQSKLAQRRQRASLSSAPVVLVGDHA", "type": "functional"}, "[12]": {"biological_target": "Eukaryotic elongation factor 2 kinase (Homo sapiens, UniProt O00418)", "type": "functional"}, "[13]": {"biological_target": "Serine/threonine-protein kinase TAO1 (Homo sapiens, UniProt Q7L7X3)", "type": "functional"}, "[14]": {"biological_target": "Dual specificity tyrosine-phosphorylation-regulated kinase 4 (Homo sapiens, UniProt Q9NR20)", "type": "functional"}, "[15]": {"biological_target": "Serine/threonine-protein kinase PLK4 (Homo sapiens, UniProt O00444)", "type": "functional"}, "Aurora kinase B": {"biological_target": "Aurora kinase B (Homo sapiens, UniProt Q96GD4)", "sequence (Q96GD4 whole entry)": "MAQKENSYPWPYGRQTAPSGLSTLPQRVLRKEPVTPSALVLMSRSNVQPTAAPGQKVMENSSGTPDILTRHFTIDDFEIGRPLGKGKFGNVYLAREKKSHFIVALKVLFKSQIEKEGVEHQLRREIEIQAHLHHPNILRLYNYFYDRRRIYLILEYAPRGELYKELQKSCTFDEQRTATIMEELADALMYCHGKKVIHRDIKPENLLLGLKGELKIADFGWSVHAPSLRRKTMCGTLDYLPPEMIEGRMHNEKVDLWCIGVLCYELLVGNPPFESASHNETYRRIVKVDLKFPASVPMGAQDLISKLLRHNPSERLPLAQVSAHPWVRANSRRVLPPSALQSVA", "type": "functional"}, "[16]": {"biological_target": "Serine/threonine-protein kinase PLK1 (Homo sapiens, UniProt P53350)", "type": "functional"}, "[17]": {"biological_target": "Serine/threonine-protein kinase pim-1 (Homo sapiens, UniProt P11309)", "sequence (P11309 whole entry)": "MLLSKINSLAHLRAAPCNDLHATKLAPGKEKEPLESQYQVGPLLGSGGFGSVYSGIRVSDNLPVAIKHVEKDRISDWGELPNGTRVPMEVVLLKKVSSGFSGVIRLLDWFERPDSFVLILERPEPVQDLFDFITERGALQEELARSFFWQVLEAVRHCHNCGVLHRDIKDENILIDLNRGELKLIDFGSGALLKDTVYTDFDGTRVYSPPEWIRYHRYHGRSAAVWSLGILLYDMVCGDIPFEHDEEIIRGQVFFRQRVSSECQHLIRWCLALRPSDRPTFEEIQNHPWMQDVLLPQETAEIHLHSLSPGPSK", "type": "functional"}, "[18]": {"biological_target": "Calcium/calmodulin-dependent protein kinase type II subunit beta (Homo sapiens, UniProt Q13554)", "sequence (Q13554 whole entry)": "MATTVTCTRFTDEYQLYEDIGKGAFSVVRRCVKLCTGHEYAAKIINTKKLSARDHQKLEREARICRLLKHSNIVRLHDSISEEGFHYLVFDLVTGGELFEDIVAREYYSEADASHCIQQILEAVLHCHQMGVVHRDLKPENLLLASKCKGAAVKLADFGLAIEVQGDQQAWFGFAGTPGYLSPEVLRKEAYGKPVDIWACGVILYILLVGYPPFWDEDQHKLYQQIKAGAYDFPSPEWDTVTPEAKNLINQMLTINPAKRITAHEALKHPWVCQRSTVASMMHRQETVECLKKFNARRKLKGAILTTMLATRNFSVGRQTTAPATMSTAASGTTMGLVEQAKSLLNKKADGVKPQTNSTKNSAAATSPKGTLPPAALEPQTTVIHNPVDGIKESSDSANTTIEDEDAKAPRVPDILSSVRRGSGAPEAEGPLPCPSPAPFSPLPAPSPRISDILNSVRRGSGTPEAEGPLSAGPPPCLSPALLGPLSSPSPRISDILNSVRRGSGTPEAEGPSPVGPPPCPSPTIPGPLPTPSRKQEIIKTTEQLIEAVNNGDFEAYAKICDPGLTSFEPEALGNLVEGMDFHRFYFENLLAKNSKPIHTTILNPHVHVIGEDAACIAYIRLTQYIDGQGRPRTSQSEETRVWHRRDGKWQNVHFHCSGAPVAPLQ", "type": "functional"}, "[19]": {"biological_target": "Mitogen-activated protein kinase kinase kinase kinase 4 (Homo sapiens, UniProt O95819)", "type": "functional"}, "[20]": {"biological_target": "Protein kinase C theta type (Homo sapiens, UniProt Q04759)", "sequence (Q04759 whole entry)": "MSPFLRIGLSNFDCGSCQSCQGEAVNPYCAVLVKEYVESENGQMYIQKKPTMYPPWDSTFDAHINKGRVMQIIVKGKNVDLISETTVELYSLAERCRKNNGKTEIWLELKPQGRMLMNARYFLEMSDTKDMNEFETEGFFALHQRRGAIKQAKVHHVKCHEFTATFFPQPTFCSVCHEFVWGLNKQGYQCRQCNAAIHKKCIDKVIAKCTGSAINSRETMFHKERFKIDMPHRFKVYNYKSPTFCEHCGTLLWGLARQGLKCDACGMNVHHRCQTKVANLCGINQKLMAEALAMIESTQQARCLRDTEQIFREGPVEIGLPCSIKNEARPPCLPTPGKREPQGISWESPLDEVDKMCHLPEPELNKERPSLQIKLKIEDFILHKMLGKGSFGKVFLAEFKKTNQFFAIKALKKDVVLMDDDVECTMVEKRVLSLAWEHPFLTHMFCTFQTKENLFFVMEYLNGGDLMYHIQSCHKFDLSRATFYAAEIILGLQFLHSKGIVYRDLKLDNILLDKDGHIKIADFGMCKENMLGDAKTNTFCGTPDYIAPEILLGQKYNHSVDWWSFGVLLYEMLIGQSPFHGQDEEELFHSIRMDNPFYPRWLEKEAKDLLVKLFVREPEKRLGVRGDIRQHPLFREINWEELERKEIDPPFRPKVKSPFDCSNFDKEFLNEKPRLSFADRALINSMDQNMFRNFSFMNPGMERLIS", "assay": "Navigating the Kinome. Panel member name: PRKCQ", "type": "functional"}, "[21]": {"assay": "viability loss in HeLa cells – cytotoxicity control for MgcRacGAP inhibitor project, dose response (AID 624300)", "type": "functional"}, "ORF 73": {"biological_target": "ORF 73 (Human herpesvirus 8, UniProt O40947)", "sequence (O40947 whole entry)": "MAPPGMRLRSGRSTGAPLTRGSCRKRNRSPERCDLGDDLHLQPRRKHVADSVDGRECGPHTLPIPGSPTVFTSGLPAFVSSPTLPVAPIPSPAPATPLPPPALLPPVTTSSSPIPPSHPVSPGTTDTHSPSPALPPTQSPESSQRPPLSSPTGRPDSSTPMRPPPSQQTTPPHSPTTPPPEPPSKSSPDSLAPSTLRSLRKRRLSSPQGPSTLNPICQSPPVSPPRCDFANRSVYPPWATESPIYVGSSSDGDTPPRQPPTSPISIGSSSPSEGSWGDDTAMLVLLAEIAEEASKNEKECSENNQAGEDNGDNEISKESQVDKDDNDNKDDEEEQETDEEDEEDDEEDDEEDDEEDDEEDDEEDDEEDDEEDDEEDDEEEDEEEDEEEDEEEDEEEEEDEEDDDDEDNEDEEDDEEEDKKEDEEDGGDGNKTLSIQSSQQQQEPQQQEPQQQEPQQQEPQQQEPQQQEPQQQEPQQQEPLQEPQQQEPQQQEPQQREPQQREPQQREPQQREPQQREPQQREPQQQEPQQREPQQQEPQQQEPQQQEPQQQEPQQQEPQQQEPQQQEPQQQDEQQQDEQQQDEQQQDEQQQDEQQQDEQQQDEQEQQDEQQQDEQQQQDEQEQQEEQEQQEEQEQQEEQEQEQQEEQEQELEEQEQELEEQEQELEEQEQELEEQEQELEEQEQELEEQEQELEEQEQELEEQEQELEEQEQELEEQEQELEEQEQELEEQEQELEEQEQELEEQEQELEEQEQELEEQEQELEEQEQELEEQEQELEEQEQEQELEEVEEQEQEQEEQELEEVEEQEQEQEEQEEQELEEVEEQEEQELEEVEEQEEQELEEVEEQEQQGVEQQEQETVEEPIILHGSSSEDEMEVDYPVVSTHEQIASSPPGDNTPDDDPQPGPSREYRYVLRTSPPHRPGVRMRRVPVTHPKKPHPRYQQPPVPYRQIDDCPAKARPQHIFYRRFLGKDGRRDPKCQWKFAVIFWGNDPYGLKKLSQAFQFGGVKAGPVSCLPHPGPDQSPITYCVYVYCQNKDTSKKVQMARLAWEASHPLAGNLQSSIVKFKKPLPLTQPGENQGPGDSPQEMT", "assay": "KSHV LANA DNA-binding disruption – biochemical, fluorescence polarization, cherry-picked samples, dose response (AID 504725);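 also: fluorescence polarization of a labeled DNA duplex reporting LANA DNA binding; potency is for inhibitors that block LANA binding to the DNA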", "set-up": "species or system Human gammaherpesvirus 8"}, "Troponin, cardiac muscle": {"biological_target": "Troponin, cardiac muscle (Homo sapiens, UniProt P19429+P45379+P63316)", "assay": "compounds desensitizing RTF to calcium – biochemical, fluorescence, cardiac regulated thin filaments, triplicate IC50, dose response (AID 504742)", "type": "protein-complex assay"}, "[22]": {"biological_target": "T1, Ubiquitin-conjugating enzyme E2 N (Homo sapiens, UniProt P61088)", "T1 sequence (P61088 whole entry)": "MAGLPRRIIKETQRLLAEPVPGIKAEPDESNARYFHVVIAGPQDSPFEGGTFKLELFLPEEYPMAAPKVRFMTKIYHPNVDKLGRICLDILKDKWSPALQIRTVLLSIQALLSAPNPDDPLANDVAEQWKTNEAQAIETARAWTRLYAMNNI", "type": "functional"}, "[23]": {"biological_target": "Intestinal-type alkaline phosphatase (Homo sapiens, UniProt P09923)", "assay": "human intestinal alkaline phosphatase activators, dose response, biochemical, luminescence, uHTS hits (AID 463120)", "type": "functional"}, "INS1": {"test_system": "INS1", "assay": "INS-1E survival protection against cytokine death – cell-based, luminescence, retest, dose response (AID 449756);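 also: cell death triggered by IL-1 beta plus TNF-alpha plus IFN-gamma mixture; protective hits raise ATP signal compared with cytokine alone wells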", "type": "functional", "details": "Rattus norvegicus"}, "[24]": {"biological_target": "Sphingosine 1-phosphate receptor 1 (Homo sapiens, UniProt P21453)", "type": "functional"}, "[25]": {"assay": "Luminescence Cell-Based Dose Response HTS to Identify Inhibitors of 5'UTR Stem-Loop Driven Prion Protein mRNA Translation in H4 Neuroglioblastoma Cells. [Related pubchem assays: 1827 (Project Summary), 1813 (Primary HTS)]", "type": "functional"}, "Hexokinase HKDC1": {"biological_target": "T2, Hexokinase HKDC1 (Homo sapiens, UniProt Q2TB90)", "T2 sequence (Q2TB90 whole entry)": "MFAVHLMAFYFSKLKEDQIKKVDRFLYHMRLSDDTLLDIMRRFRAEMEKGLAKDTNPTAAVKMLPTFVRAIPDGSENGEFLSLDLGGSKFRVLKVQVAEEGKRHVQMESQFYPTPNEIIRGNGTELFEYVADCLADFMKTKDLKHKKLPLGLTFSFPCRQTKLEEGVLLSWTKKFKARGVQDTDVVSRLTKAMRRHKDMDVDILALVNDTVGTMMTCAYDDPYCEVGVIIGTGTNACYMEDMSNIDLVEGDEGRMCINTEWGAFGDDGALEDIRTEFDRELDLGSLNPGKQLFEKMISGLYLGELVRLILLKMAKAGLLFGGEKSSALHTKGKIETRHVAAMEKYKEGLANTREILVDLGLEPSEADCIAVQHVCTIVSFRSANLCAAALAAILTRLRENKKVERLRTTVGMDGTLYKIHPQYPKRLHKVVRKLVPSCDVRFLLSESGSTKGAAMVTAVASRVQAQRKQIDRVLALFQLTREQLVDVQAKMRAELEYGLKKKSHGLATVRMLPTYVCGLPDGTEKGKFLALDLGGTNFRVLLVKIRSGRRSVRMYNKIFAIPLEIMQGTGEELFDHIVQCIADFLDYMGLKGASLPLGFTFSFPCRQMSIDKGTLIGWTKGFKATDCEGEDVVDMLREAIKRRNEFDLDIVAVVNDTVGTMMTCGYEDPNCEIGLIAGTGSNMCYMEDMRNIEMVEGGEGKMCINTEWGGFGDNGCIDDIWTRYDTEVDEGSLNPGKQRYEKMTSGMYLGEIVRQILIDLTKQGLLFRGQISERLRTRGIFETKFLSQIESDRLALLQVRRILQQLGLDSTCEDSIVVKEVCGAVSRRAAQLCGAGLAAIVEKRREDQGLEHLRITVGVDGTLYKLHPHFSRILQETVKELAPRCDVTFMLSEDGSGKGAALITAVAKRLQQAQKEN", "assay": "inhibition of HKDC1 glucose phosphorylation – biochemical, W721R variant, dose response (AID 504729)", "type": "functional"}}, "note": "Active and inactive are the calls of the source."}
{"smiles": "Nc1noc2cccc(-c3cccc(O)c3)c12", "values": [{"measurement": "Ki", "setting": "[1]", "result": "> 50.1 µM (inactive)"}, {"measurement": "Ki", "setting": "[2]", "result": "> 1.58 µM (inactive)"}, {"measurement": "Ki", "setting": "[3]", "result": "> 7.94 µM (inactive)"}, {"measurement": "Ki", "setting": "[4]", "result": "50.1 µM (active)"}, {"measurement": "Ki", "setting": "[5]", "result": "> 1.58 µM (inactive)"}, {"measurement": "Ki", "setting": "[6]", "result": "> 6.31 µM (inactive)"}, {"measurement": "Ki", "setting": "[7]", "result": "1.26 µM (active)"}, {"measurement": "Ki", "setting": "[8]", "result": "> 7.94 µM (inactive)"}, {"measurement": "Ki", "setting": "[9]", "result": "> 25.1 µM (inactive)"}, {"measurement": "Ki", "setting": "[10]", "result": "> 7.94 µM (inactive)"}, {"measurement": "Ki", "setting": "[11]", "result": "1 µM (active)"}, {"measurement": "Ki", "setting": "[12]", "result": "> 3.98 µM (inactive)"}, {"measurement": "Ki", "setting": "[13]", "result": "> 25.1 µM (inactive)"}, {"measurement": "Ki", "setting": "[14]", "result": "> 7.94 µM (inactive)"}, {"measurement": "Ki", "setting": "[15]", "result": "2 µM (active)"}, {"measurement": "Ki", "setting": "Aurora kinase B", "result": "3.98 µM (active)"}, {"measurement": "Ki", "setting": "[16]", "result": "> 7.94 µM (inactive)"}, {"measurement": "Ki", "setting": "[17]", "result": "12.6 µM (active)"}, {"measurement": "Ki", "setting": "[18]", "result": "> 7.94 µM (inactive)"}, {"measurement": "Ki", "setting": "[19]", "result": "20 µM (active)"}, {"measurement": "Ki", "setting": "[20]", "result": "20 µM (active)"}]}
{"smiles": "Cc1ccc2[nH]c(/C(C#N)=C/c3ccc(O)c(O)c3)nc2c1", "values": [{"measurement": "CC50", "setting": "[21]", "result": "100 µM (active)"}]}
{"smiles": "O=C1NC(=S)S/C1=C\\C=C\\c1ccc([N+](=O)[O-])o1", "values": [{"measurement": "AC50", "setting": "ORF 73", "result": "71.4 µM (active)"}, {"measurement": "IC50", "setting": "Troponin, cardiac muscle", "result": "40.2 µM (inactive)"}]}
{"smiles": "O=C(NN1C(=O)CSC1=S)C(=O)NN1C(=O)CSC1=S", "values": [{"measurement": "IC50", "setting": "[22]", "result": "> 20 µM (inactive)"}, {"measurement": "EC50", "setting": "[23]", "result": "9.21 µM (active)"}]}
{"smiles": "COC(=O)C1CN(C#N)N(c2ccc(Cl)cc2)C12c1ccccc1-c1ccccc12", "note": "(stereo not given)", "values": [{"measurement": "AC50", "setting": "INS1", "result": "2.5 µM (active)"}, {"measurement": "IC50", "setting": "[24]", "result": "5.76 µM (active)"}, {"measurement": "EC50", "setting": "[25]", "result": "10.1 µM (active)"}, {"measurement": "IC50", "setting": "Hexokinase HKDC1", "result": "3.81 µM (active)"}]}
